The results in this text go back to patent US20230097700A1, “AZETIDINE SULFONAMIDE COMPOUND” (DAIICHI SANKYO COMPANY, LIMITED, priority 2019, published 2023).

pIC50: −log10 of the molar value. Structures can show the parent of a compound that is named as a salt.

This assay concerns activated T cells (CD4+ T cells derived from the mouse spleen). The experiment in a line: Incorporation of 3H-thymidine into activated T cells. The settings on record: 3H-thymidine incorporation, mouse spleen CD4+ T cells activated with Dynabeads Mouse T-Activator CD3/CD28. The format is cell-based, mouse (C57BL/6J). As for the experimental part: Effect of a test substance on incorporation of ^3H-thymidine was evaluated using T cells derived from the mouse spleen. The spleen was excised out from a C57BL/6J mouse euthanized, cut into pieces, ground on a cell strainer (40 μm mesh) and centrifuged to collect spleen cells. CD4+ T cells were isolated from the spleen cells by use of EasySep Mouse CD4+ T cell isolation kit (STEMCELL Technologies). CD4+ T cells were seeded to a 96-well round-bottom plate. Test substance dissolved in DMSO (dimethyl sulfoxide) or vehicle (DMSO) was added to culture medium and Dynabeads Mouse T-Activator CD3/CD28 (Thermo Fisher Scientific Inc.) was added. Culture was carried out at 37° C. in 5% CO2. After culture was carried out for 24 hours, ^3H-thymidine (PerkinElmer) diluted with the culture medium was added to individual wells. Culture was further carried out overnight at 37° C. in 5% CO2. In order to measure ^3H-thymidine incorporated in nuclei of the cells, the cells were collected on a filter plate UniFilter-96 GF/B (PerkinElmer) by use of a FilterMate Universal Harvester (PerkinElmer). After the filter plate was placed in a dryer and allowed to stand still for 2 hours or more, scintillation cocktail MicroScint-O (PerkinElmer) was added and radioactivity was measured by TopCount NXT (PerkinElmer). With the radioactivity of a group not containing a test substance being specified as 100% and the radioactivity of a group not activated being specified as 0%, relative radioactivity values of individual wells to which the test substance was added (proliferation rate, % of vehicle) were calculated. The values of “% of vehicle” were entered in analysis software Prism (Version 4.03, GraphPad Software). “Nonlinear regression Log (inhibitor) vs reaction variable tilt” was selected and sigmoid type-fitting (Bottom=0, Top=100) was carried out to calculate 50% inhibition concentration (IC50). The compound of the present invention suppresses ^3H-thymidine incorporation in activated T cells.
On the technique in general: Incorporation of labelled thymidine or its analogues reports DNA synthesis.
A word on the pIC50: it is the negative decadic logarithm of the IC50, by convention in mol/L. `N[C@@H](Cc1cccc(S(=O)(=O)N2CC(Oc3ccc(Cl)cc3)(c3ccc(F)c(F)c3)C2)c1)C(=O)O` [Example 36, (2S)-2-Amino-3-{3-[3-(4-chlorophenoxy)-3-(3,4-difluorophenyl)azetidin-1-sulfonyl]phenyl}propanoic acid monohydrochloride] showed a pIC50 of 7.72.

`N[C@@H](Cc1cccc(S(=O)(=O)N2CC(Oc3ccc(F)cc3)(c3ccc(F)c(F)c3)C2)c1)C(=O)O` [Example 37, (2S)-2-Amino-3-{3-[3-(3,4-difluorophenyl)-3-(4-fluorophenoxy)azetidin-1-sulfonyl]phenyl}propanoic acid monohydrochloride]: the negative logarithm of the IC50 (pIC50) is 7.62.

Compound `N#Cc1ccc(OC2(c3ccc(F)c(F)c3)CN(S(=O)(=O)c3cccc(C[C@H](N)C(=O)O)c3)C2)cc1` [Example 38, (2S)-2-Amino-3-{3-[3-(4-cyanophenoxy)-3-(3,4-difluorophenyl)azetidin-1-sulfonyl]phenyl}propanoic acid monohydrochloride] showed a pIC50 of 7.77.

On to `NC(=O)c1ccc(OC2(c3ccc(F)c(F)c3)CN(S(=O)(=O)c3cccc(C[C@H](N)C(=O)O)c3)C2)cc1` [Example 39, (2S)-2-Amino-3-{3-[3-(4-carbamoylphenoxy)-3-(3,4-difluorophenyl)azetidin-1-sulfonyl]phenyl}propanoic acid monohydrochloride], for which the pIC50 was 7.85.

Take `Cc1cccc(OC2(c3ccccc3)CN(S(=O)(=O)c3cccc(C[C@H](N)C(=O)O)c3)C2)c1` [Example 43, (2S)-2-Amino-3-(3-{[3-(3-methylphenoxy)-3-phenylazetidin-1-yl]sulfonyl}phenyl)propanoic acid monohydrochloride]: the pIC50 was 7.74.

`Cc1ccc(OC2(c3ccccc3)CN(S(=O)(=O)c3cccc(C[C@H](N)C(=O)O)c3)C2)cc1F` [Example 45, (2S)-2-Amino-3-(3-{[3-(3-fluoro-4-methylphenoxy)-3-phenylazetidin-1-yl]sulfonyl}phenyl)propanoic acid monoformate]: the pIC50 is 7.64.

On to `Cc1ccc(OC2(c3ccc(F)cc3)CN(S(=O)(=O)c3cccc(C[C@H](N)C(=O)O)c3)C2)cn1` [Example 46, (2S)-2-Amino-3-[3-({3-(4-fluorophenyl)-3-[(6-methylpyridin-3-yl)oxy]azetidin-1-yl}sulfonyl)phenyl]propanoic acid dihydrochloride], for which the pIC50 was 7.51.

Regarding `N[C@@H](Cc1cccc(S(=O)(=O)N2CC(Oc3ccc(F)cc3)(c3ccc(F)cn3)C2)c1)C(=O)O` [Example 47, (2S)-2-Amino-3-(3-{[3-(4-fluorophenoxy)-3-(5-fluoropyridin-2-yl)azetidin-1-yl]sulfonyl}phenyl)propanoic acid dihydrochloride], the pIC50 is 7.47.

Take `CCc1ccc(OC2(c3ccc(F)cc3)CN(S(=O)(=O)c3cccc(C[C@H](N)C(=O)O)c3)C2)cn1` [Example 48, (2S)-2-Amino-3-[3-({3-[(6-ethylpyridin-3-yl)oxy]-3-(4-fluorophenyl)azetidin-1-yl}-sulfonyl)phenyl]propanoic acid dihydrochloride]: the pIC50 was 7.66.

Turning to `Cc1ncc(OC2(c3ccc(F)cc3)CN(S(=O)(=O)c3cccc(C[C@H](N)C(=O)O)c3)C2)cc1F` [Example 49, (2S)-2-Amino-3-[3-({3-[(5-fluoro-6-methylpyridin-3-yl)oxy]-3-(4-fluorophenyl)azetidin-1-yl}sulfonyl)phenyl]propanoic acid dihydrochloride], the pIC50 was 7.44.

With `Cc1ccc(OC2(c3ccc(F)cn3)CN(S(=O)(=O)c3cccc(C[C@H](N)C(=O)O)c3)C2)cc1` [Example 50, (2S)-2-Amino-3-(3-{[3-(5-fluoropyridin-2-yl)-3-(4-methylphenoxy)azetidin-1-yl]sulfonyl}phenyl)propanoic acid dihydrochloride], the pIC50 is 7.62.

As to `N[C@@H](Cc1cccc(S(=O)(=O)N2CC(Oc3ccc(B(O)O)cc3)(c3ccccc3)C2)c1)C(=O)O` [Example 52, (2S)-2-Amino-3-(3-{[3-(4-boronophenoxy)-3-phenylazetidin-1-yl]sulfonyl}phenyl)propanoic acid monoformate], the pIC50 was 8.18.

In turn, `N[C@@H](Cc1cccc(S(=O)(=O)N2CC(Oc3ccc(Cl)cc3)(c3ccc(Cl)cc3)C2)c1)C(=O)O` [Example 53, (2S)-2-Amino-3-(3-{[3-(4-chlorophenoxy)-3-(4-chlorophenyl)azetidin-1-yl]sulfonyl}phenyl)propanoic acid monoformate] showed a pIC50 of 8.06.

The compound `N[C@@H](Cc1cccc(S(=O)(=O)N2CC(Oc3ccc(F)cc3)(c3ccc(Cl)cc3)C2)c1)C(=O)O` [Example 54, (2S)-2-Amino-3-(3-{[3-(4-chlorophenyl)-3-(4-fluorophenoxy)azetidin-1-yl]sulfonyl}phenyl)propanoic acid monoformate] showed a pIC50 of 8.32.

`N[C@@H](Cc1cccc(S(=O)(=O)N2CC(Oc3cccc(F)c3)(c3ccc(Cl)cc3)C2)c1)C(=O)O` [Example 55, (2S)-2-Amino-3-(3-{[3-(4-chlorophenyl)-3-(3-fluorophenoxy)azetidin-1-yl]sulfonyl}phenyl)propanoic acid monoformate]: the pIC50 was 8.11.

As to `CCn1cc(OC2(c3ccc(F)cc3)CN(S(=O)(=O)c3cccc(C[C@H](N)C(=O)O)c3)C2)cn1` [Example 56, (2S)-2-Amino-3-[3-({3-[(1-ethyl-1H-pyrazol-4-yl)oxy]-3-(4-fluorophenyl)azetidin-1-yl)sulfonyl)phenyl]propanoic acid dihydrochloride], the pIC50 was 6.62.

Compound `COc1ccc(OC2(c3ccc(F)cc3)CN(S(=O)(=O)c3cccc(C[C@H](N)C(=O)O)c3)C2)cn1` [Example 57, (2S)-2-Amino-3-[3-({3-(4-fluorophenyl)-3-[(6-methoxypyridin-3-yl)oxy]azetidin-1-yl}sulfonyl)phenyl]propanoic acid monoformate] had a pIC50 of 7.80.

With `N[C@@H](Cc1cccc(S(=O)(=O)N2CC(Oc3ccc4c(c3)COB4O)(c3ccc(F)cc3)C2)c1)C(=O)O` [Example 58, (2S)-2-Amino-3-[3-({3-(4-fluorophenyl)-3-[(1-hydroxy-1,3-dihydro-2,1-benzoxaborol-5-yl)oxy]azetidin-1-yl)sulfonyl)phenyl]propanoic acid monoformate], the pIC50 is 7.80.

`Cc1ccc(C2(Oc3cccc(F)c3)CN(S(=O)(=O)c3cccc(C[C@H](N)C(=O)O)c3)C2)cc1` [Example 59, (2S)-2-Amino-3-(3-{[3-(3-fluorophenoxy)-3-(4-methylphenyl)azetidin-1-yl]sulfonyl}phenyl)propanoic acid monoformate]: the pIC50 was 7.74.

Turning to `CC(=O)c1ccc(OC2(c3ccc(F)cn3)CN(S(=O)(=O)c3cccc(C[C@H](N)C(=O)O)c3)C2)cc1` [Example 60, (2S)-3-(3-{[3-(4-acetylphenoxy)-3-(5-fluoropyridin-2-yl)azetidin-1-yl]sulfonyl}phenyl)-2-aminopropanoic acid dihydrochloride], the pIC50 was 7.85.

The compound `NC(=O)c1ccc(OC2(c3ccc(Cl)cc3)CN(S(=O)(=O)c3cccc(C[C@H](N)C(=O)O)c3)C2)cc1` [Example 61, (2S)-2-Amino-3-(3-{[3-(4-carbamoylphenoxy)-3-(4-chlorophenyl)azetidin-1-yl]sulfonyl}phenyl)propanoic acid monohydrochloride] had a pIC50 of 8.00.

The compound `NC(=O)c1ccc(OC2(c3ccc(F)cc3)CN(S(=O)(=O)c3cccc(C[C@H](N)C(=O)O)c3)C2)cn1` [Example 86a, dihydrochloride] gave a pIC50 of 7.64.

On to `N#Cc1ccc(OC2(c3ccc(F)cc3)CN(S(=O)(=O)c3cccc(C[C@H](N)C(=O)O)c3)C2)cn1` [Example 86b, monoformate], for which the pIC50 was 7.77.

In turn, `N[C@@H](Cc1cccc(S(=O)(=O)N2CC(Oc3ccc(Cl)cc3)(c3ccccc3)C2)c1)C(=O)O` [Example 87] gave a pIC50 of 7.72.

Compound `N[C@@H](Cc1cccc(S(=O)(=O)N2CC(Oc3ccccc3)(c3ccccc3)C2)c1)C(=O)O` [Example 88, (2S)-2-Amino-3-(3-{[3-(3-phenoxy)-3-phenylazetidin-1-yl]sulfonyl}phenyl)propanoic acid] gave a pIC50 of 7.82.

Compound `N[C@@H](Cc1cccc(S(=O)(=O)N2CC(Oc3ccc4[nH]ncc4c3)(c3ccccc3)C2)c1)C(=O)O` [Example 90, (2S)-2-Amino-3-(3-{3-[(1H-indazol-5-yl)oxy]-3-phenylazetidin-1-sulfonyl}phenyl)propanoic acid] had a pIC50 of 8.47.
